Measured values taken from paper PMC6308302, “Identification of Pharmacokinetic Markers for Guanxin Danshen Drop Pills in Rats by Combination of Pharmacokinetics, Systems Pharmacology, and Pharmacodynamic Assays” (Frontiers in Pharmacology, 2018).
Entries after “also recorded” stand apart in the source; their conditions may differ. Marks after values point to notes of the source that are not given here. Blank lines part the entries; values can stand above or below the compound they belong to.

What was measured:
[1] = Aqueous solubility test (vortexing in water); format: physicochemical; conditions: water at 25 °C
Procedure: Aqueous solubility (S) test of the 17 ingredients was performed by vortexing 10 mg of each ingredient in […] water in a test tube at ambient temperature and 1 atm. After vortexing for 5 min, if the solution is clear, the tested object will be considered as soluble in water. In silico assessment of the physicochemical properties governing permeation and intestinal absorption was carried out for the 17 ingredients studied. Theory aqueous solubility (S) was calculated with ALOGPS 2.1 online software via the Virtual Computational Chemistry Laboratory service (Chemoinformatics Group, Neuherberg, Germany) (VCCLAB^1). The octanol–water partition coefficient (cLogP), the total hydrogen bond count (donors and acceptors), and topological polar surface area (TPSA) were determined using the Molinspiration Property Calculator (Molinspiration Cheminformatics, Bratislava, Slovak Republic^2). Lipinski’s rule of 5 was used to predict the permeability of the compound ([Lipinski et al., 2001]).

Caco-2 cell monolayers = conditions: ref Lu et al., 2008, Liu et al., 2009, Hu et al., 2014, Bowles et al., 2017, cited from earlier work; for Papp(apical→basolateral) / Papp(basolateral→apical): Caco-2 cell monolayers, from literature; for apparent permeability in Caco-2 cell monolayers: previous results
[2] = Stability tests in rat plasma (QC samples, HPLC-MS); conditions: n=5
Source text: Accuracy and precision were expressed by relative error (RE) and coefficient of variance (RSD), respectively.

[3] = Multiple component PK study in rat plasma after p.o. GDDP (HPLC-MS); conditions: for determination in rat plasma at the planned successive PK time points / detection in rat plasma: GDDP 0.8 g/kg p.o.; for determination in rat plasma at the planned successive PK time points: 5, 10, 15, 30, 45, 60, and 120 min, LOQ 1.0–1.4 ng/mL; for detection in rat plasma: at 5, 10, 15, 30, 45, or 60 min, LOD 0.5–0.7 ng/mL; for AUC(0-inf) / AUC(0-t) / MRT inf / MRT last / Tmax / Cmax / half-life: Sprague-Dawley, rat, plasma, po
[4] = test system: isoprenaline-induced MI in mice; assay: In vivo anti-MI study: isoprenaline-induced myocardial injury (ECG, H&E histology); conditions: for Histopathology of heart tissue (H&E): 40 mg/kg p.o. for 7 days, isoprenaline-induced MI, 40 mg/kg; for ECG (lead II) findings on the fifth day of the trial: 40 mg/kg p.o., isoprenaline 5 mg/kg on days 4 and 5
[5] = 24h in auto-sampler vials, spiked 2 ng/mL
[6] = 24h in auto-sampler vials, spiked 400 ng/mL
[7] = 24h in auto-sampler vials, spiked 1600 ng/mL
[8] = Placing plasma for 6h at 4°C, spiked 2 ng/mL
[9] = Placing plasma for 6h at 4°C, spiked 400 ng/mL
[10] = Placing plasma for 6h at 4°C, spiked 1600 ng/mL
[11] = three freeze-thaw cycles, rat plasma, spiked 2 ng/mL
[12] = three freeze-thaw cycles, rat plasma, spiked 400 ng/mL
[13] = three freeze-thaw cycles, rat plasma, spiked 1600 ng/mL
[14] = 0.4 g/kg, Cmax, rat plasma, GDDP 0.4 g/kg p.o. (Low dose group), n=3
[15] = 0.4 g/kg, t1/2 β, rat plasma, GDDP 0.4 g/kg p.o. (Low dose group), n=3
[16] = 0.8 g/kg, Cmax (high / low plasma drug concentrations), rats, GDDP 0.4 and 0.8 g/kg p.o., classification
[17] = 0.8 g/kg, Cmax, rat plasma, GDDP 0.8 g/kg p.o. (High dose group), n=3
[18] = 0.8 g/kg, t1/2 β (fast / slow elimination type), rats, GDDP 0.4 and 0.8 g/kg p.o., classification
[19] = 0.8 g/kg, t1/2 β, rat plasma, GDDP 0.8 g/kg p.o. (High dose group), n=3
[20] = rat plasma, GDDP 0.4 g/kg p.o. (Low dose group), n=3
[21] = rat plasma, GDDP 0.8 g/kg p.o. (High dose group), n=3

Compound: C[C@H]1COC2=C1C(=O)C(=O)c1c2ccc2c1CCCC2(C)C [CTS, cryptotanshinone]
- solubility in water (in words) [1]: insoluble
- Papp(apical→basolateral) (Caco-2 cell monolayers): 1.59^d ×10^-6 cm/s
- Papp(basolateral→apical) (Caco-2 cell monolayers): 8.36^d ×10^-6 cm/s
- apparent permeability in Caco-2 cell monolayers (Caco-2 cell monolayers): ≥ 10^-6 cm/s
- Stability: Measured [2, 5]: 1.79 ± 0.36 ng/mL
- Stability: RE [2, 5]: -10.32%
- Stability: Measured [2, 6]: 478.43 ± 27.22 ng/mL
- Stability: RE [2, 6]: 19.61%
- Stability: Measured [2, 7]: 1852.38 ± 164.86 ng/mL
- Stability: RE [2, 7]: 15.77%
- Stability: Measured [2, 8]: 1.79 ± 0.26 ng/mL
- Stability: RE [2, 8]: -10.47%
- Stability: Measured [2, 9]: 438.37 ± 50.69 ng/mL
- Stability: RE [2, 9]: 9.59%
- Stability: Measured [2, 10]: 1890.21 ± 223.22 ng/mL
- Stability: RE [2, 10]: 18.14%
- Stability: Measured [2, 11]: 1.62 ± 0.22 ng/mL
- Stability: RE [2, 11]: -19.00%
- Stability: Measured [2, 12]: 457.79 ± 26.04 ng/mL
- Stability: RE [2, 12]: 14.45%
- Stability: Measured [2, 13]: 1871.43 ± 321.89 ng/mL
- Stability: RE [2, 13]: 16.96%
- determination in rat plasma at the planned successive PK time points [3]: could be determined
- detection in rat plasma [3]: could be detected
- AUC(0-inf) ([3]; 0.4 g/kg): 1.72 ± 1.24 ng·h/mL
- AUC(0-t) ([3]; 0.4 g/kg): 0.84 ± 0.03 ng·h/mL
- MRT inf ([3]; 0.4 g/kg): 0.69 ± 0.66 h
- MRT last ([3]; 0.4 g/kg): 0.23 ± 0.03 h
- Tmax ([3]; 0.4 g/kg): 15 min
- Cmax [3, 14]: 2.33 ± 0.49 ng/mL
- half-life [3, 15]: 27 ± 27 min
- AUC(0-inf) ([3]; 0.8 g/kg): 3.24 ± 1.09 ng·h/mL
- AUC(0-t) ([3]; 0.8 g/kg): 2.76 ± 1.18 ng·h/mL
- MRT inf ([3]; 0.8 g/kg): 0.84 ± 0.3 h
- MRT last ([3]; 0.8 g/kg): 0.56 ± 0.22 h
- Tmax ([3]; 0.8 g/kg): 15 min
- Cmax [3, 16]: < 10 ng/mL
- Cmax [3, 17]: 4.09 ± 1.47 ng/mL
- half-life [3, 18]: < 120 min
- half-life [3, 19]: 34.2 ± 15.6 min
- Cltot [3, 20]: 209.12 ± 151.07 L/h/kg
- Cltot [3, 21]: 175.44 ± 49.57 L/h/kg
- Histopathology of heart tissue (H&E) [4]: remarkably severe histological damage with extensive myocardial lysis and architecture wrecking; also recorded: extremely severe histological damage with extensive myocardial lysis and architecture wrecking
- ECG (lead II) findings on the fifth day of the trial [4]: T waves reversed or decreased

- solubility in water (in words) [1]: insoluble
- Stability: Measured [2, 5]: 2.02 ± 0.32 ng/mL
- Stability: RE [2, 5]: 0.78%
- Stability: Measured [2, 6]: 470.56 ± 54.19 ng/mL
- Stability: RE [2, 6]: 17.64%
- Stability: Measured [2, 7]: 1562.58 ± 145.90 ng/mL
- Stability: RE [2, 7]: -2.34%
- Stability: Measured [2, 8]: 2.22 ± 0.30 ng/mL
- Stability: RE [2, 8]: 10.90%
- Stability: Measured [2, 9]: 469.39 ± 24.45 ng/mL
- Stability: RE [2, 9]: 17.35%
- Stability: Measured [2, 10]: 1771.82 ± 333.46 ng/mL
- Stability: RE [2, 10]: 10.74%
- Stability: Measured [2, 11]: 2.09 ± 0.20 ng/mL
- Stability: RE [2, 11]: 4.39%
- Stability: Measured [2, 12]: 459.00 ± 25.68 ng/mL
- Stability: RE [2, 12]: 14.75%
- Stability: Measured [2, 13]: 1482.38 ± 283.06 ng/mL
- Stability: RE [2, 13]: -7.32%
- determination in rat plasma at the planned successive PK time points [3]: could be determined
- detection in rat plasma [3]: could be detected
- AUC(0-inf) ([3]; 0.4 g/kg): 125 ± 115 ng·h/mL
- AUC(0-t) ([3]; 0.4 g/kg): 63 ± 49.5 ng·h/mL
- MRT inf ([3]; 0.4 g/kg): 27.3 ± 10.6 h
- MRT last ([3]; 0.4 g/kg): 9.93 ± 0.87 h
- Tmax ([3]; 0.4 g/kg): 75 ± 63.6 min
- Cmax [3, 14]: 6.1 ± 3.08 ng/mL
- half-life [3, 15]: 983 ± 532 min
- AUC(0-inf) ([3]; 0.8 g/kg): 45.1 ± 20.6 ng·h/mL
- AUC(0-t) ([3]; 0.8 g/kg): 40.1 ± 17.3 ng·h/mL
- MRT inf ([3]; 0.8 g/kg): 7.72 ± 2.17 h
- MRT last ([3]; 0.8 g/kg): 4.27 ± 1.62 h
- Tmax ([3]; 0.8 g/kg): 75 ± 39.6 min
- Cmax [3, 16]: < 10 ng/mL
- Cmax [3, 17]: 8.59 ± 3.18 ng/mL
- half-life [3, 18]: > 156 min
- half-life [3, 19]: 703 ± 287 min
- Cltot [3, 20]: 2.72 ± 2.51 L/h/kg
- Cltot [3, 21]: 9.78 ± 3.59 L/h/kg
Compound: Cc1coc2c1C(=O)C(=O)c1c-2ccc2c(C)cccc12 [TS I, tanshinone I]
- Papp(apical→basolateral) (Caco-2 cell monolayers): 0.95^d ×10^-6 cm/s
- Papp(basolateral→apical) (Caco-2 cell monolayers): 11.27^d ×10^-6 cm/s
- apparent permeability in Caco-2 cell monolayers (Caco-2 cell monolayers): ≥ 10^-6 cm/s
- Histopathology of heart tissue (H&E) [4]: myocardial lysis, architecture disorder, and loss of striations in heart tissue; also recorded: myocardial lysis, and architecture disorder, and loss of striations in heart tissue
- ECG (lead II) findings on the fifth day of the trial [4]: T waves reversed or decreased
